Reference: PubChem BioAssay (NCI)
Where “and” joins values, the source holds several entries; their conditions need not be identical. Identical values can stand only once.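 The compound was tested at five concentrations on cells cultured in 96-well plates, with a 48-hour exposure period. The concentration for 50% growth inhibition is given as GI50. The concentration for full growth arrest is given as TGI.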

Experiments:
Experiment in all cases: NCI tumour cell line growth inhibition, 48 h
[1] = test system: MDA-MB-468 breast
[2] = test system: M14 melanoma
[3] = test system: SK-MEL-28 melanoma
[4] = test system: OVCAR-3 ovarian
[5] = test system: CCRF-CEM leukemia
[6] = test system: UO-31 renal
[7] = test system: A498 renal
[8] = test system: EKVX NSCLC
[9] = test system: MDA-MB-435
[10] = test system: SK-OV-3 ovarian
[11] = test system: MCF7 breast
[12] = test system: BT-549 breast
[13] = test system: PC-3 prostate
[14] = test system: MDA-MB-231 breast
[15] = test system: HOP-62 NSCLC
[16] = test system: SF-539 CNS
[17] = test system: OVCAR-8 ovarian
[18] = test system: DU-145 prostate
[19] = test system: HCC-2998 colon
[20] = test system: U251 CNS
[21] = test system: 786-0 renal
[22] = test system: MOLT-4 leukemia
[23] = test system: SNB-19 CNS
[24] = test system: LOX IMVI melanoma
[25] = test system: RPMI-8226 leukemia
[26] = test system: IGROV1 ovarian
[27] = test system: SN12C renal
[28] = test system: SR leukemia
[29] = test system: SF-268 CNS
[30] = test system: HOP-92 NSCLC
[31] = test system: HT29 colon
[32] = test system: CAKI-1 renal
[33] = test system: COLO 205 colon
[34] = test system: TK-10 renal
[35] = test system: NCI-H460 lung
[36] = test system: KM12 colon
[37] = test system: NCI-H226 lung
[38] = test system: A549 NSCLC
[39] = test system: HS 578T breast
[40] = test system: RXF 393 renal
[41] = test system: HL-60(TB) leukemia
[42] = test system: OVCAR-4 ovarian
[43] = test system: ACHN renal
[44] = test system: K-562 leukemia
[45] = test system: SK-MEL-5 melanoma
[46] = test system: HCT-116 colon
[47] = test system: OVCAR-5 ovarian
[48] = test system: SNB-75 CNS
[49] = test system: SW-620 colon
[50] = test system: SF-295 CNS
[51] = test system: HCT-15 colon
[52] = test system: UACC-257 melanoma
[53] = test system: T-47D breast
[54] = test system: MALME-3M melanoma
[55] = test system: UACC-62 melanoma
[56] = test system: NCI-H23 lung
[57] = test system: NCI-H522 lung

O=S(=O)(Nc1ccccn1)c1ccc(N=Nc2ccc(O)c3ncccc23)cc1
GI50 [1]: 2.23 µM | TGI [1]: 8.44 µM

COc1ccc(C2CC(=O)c3c(O)c(OC)c(OC)c(OC)c3O2)cc1O (stereo unspecified)
GI50 [1]: 1.51 µM | TGI [1]: > 100 µM

COc1ccc2nc3ccccc3c(NCc3ccc(C)cc3)c2c1
GI50 [1]: 1.81 µM | TGI [1]: 3.92 µM

Clc1ccc2c(NCCNc3nc(N4CCCC4)nc4ccccc34)ccnc2c1
GI50 [1]: 1.2 µM | TGI [1]: 3.43 µM

C=CCSSc1ncnc2c1ncn2C1OC(CO)C(O)C1O (stereo unspecified)
GI50 [1]: 0.217 µM | TGI [1]: 4.46 µM

Cc1ccc(C2=NN(c3ccc(S(N)(=O)=O)cc3)C(c3cn(-c4ccccc4)nc3-c3ccccc3)C2)cc1 (stereo unspecified)
GI50 [1]: 24.3 µM | TGI [1]: > 100 µM

Cc1nn(C)c2cc(N(C)c3ccnc(Nc4cccc(S(N)(=O)=O)c4)n3)ccc12
GI50 [1]: 4.19 µM | TGI [1]: 13.7 µM

Fc1cccc(-c2[nH]nc3nc(Nc4cccnc4)sc23)c1
GI50 [1]: 0.36 µM | TGI [1]: 3 µM

COc1ccc2nc(-c3cc4c([nH]c5ccccc54)c(-c4ccc(F)c(F)c4)n3)[nH]c2c1
GI50 [1]: 1.7 µM | TGI [1]: 3.92 µM

CCN1CCN(c2ccc(Nc3ncc4ccc5ncn(C(C)C)c5c4n3)nc2)CC1
GI50 [1]: 0.177 µM | TGI [1]: 0.444 µM

C=C1C(=O)O[C@H]2[C@H]1CC/C(COC(=O)NCc1cc(OC)cc(OC)c1)=C\CC[C@@]1(C)O[C@@H]21
GI50 [1]: 0.58 µM | TGI [1]: 2.33 µM

C=C(C)[C@@H]1CC[C@]2(C(N)=O)CC[C@]3(C)[C@H](CC[C@@H]4[C@@]5(C)C/C(=C/c6cccnc6)[C@H](O)C(C)(C)[C@@H]5CC[C@]43C)[C@@H]12
GI50 [1]: 4.05 µM | TGI [1]: > 100 µM

C[C@@H]1OCC2(CCN(c3cnc(Sc4ccnc(N)c4Cl)c(N)n3)CC2)[C@@H]1N
GI50 [1]: 14.8 µM | TGI [1]: > 100 µM

CC#CC(=O)N1CC[C@@H](n2c(=O)n(-c3ccc(Oc4ccccc4)cc3)c3c(N)ncnc32)C1
GI50 [1]: 10.5 µM | TGI [1]: 60.2 µM

Oc1c(CN2CCN(c3ccccc3F)CC2)cc(Br)c2cccnc12
GI50 [1]: 0.673 µM | TGI [1]: 6.84 µM

N#Cc1nn(-c2cc(=O)[nH]c3ccc(Br)cc23)c(N)c1C#N
GI50 [1]: > 100 µM | TGI [1]: > 100 µM

Cc1cc2nc(C(Cl)Cl)nc(-c3ccccc3)n2n1
GI50 [1]: 1.81 µM | TGI [1]: 4.45 µM

CN1CCN(CC(=O)N2c3cccc4cccc(c34)N(C(=O)CN3CCN(C)CC3)C2c2cn(-c3ccccc3)nc2-c2cccc([N+](=O)[O-])c2)CC1
GI50 [1]: 1.61 µM | TGI [1]: 3.06 µM

C/C(=C\c1ccn(-c2ccc(N)cc2F)n1)[C@@H]1C[C@@H]2O[C@]2(C)CCC[C@H](C)[C@H](O)[C@@H](C)C(=O)C(C)(C)[C@@H](O)CC(=O)O1
GI50 [1]: 0.0263 µM | TGI [1]: 0.3 µM

Cc1nc2sc(C(=O)Nc3cccc(Br)c3)c(N)c2cc1C(O)c1ccccc1 (stereo unspecified)
GI50 [1]: 0.38 µM | TGI [1]: 10.2 µM

Oc1c(I)cc(I)cc1CN(Cc1ccccn1)Cc1ccccn1
GI50 [1]: 1.31 µM | TGI [1]: 7.28 µM

CC(CN)[C@@H]1CC[C@]2(CO)CC[C@]3(C)[C@H](CC[C@@H]4[C@@]5(C)CCC(N)C(C)(C)[C@@H]5CC[C@]43C)[C@@H]12 (stereo partly specified)
GI50 [1]: 1.59 µM | TGI [1]: 3.25 µM

COc1cc(C)c(NC(=O)CN(C)C)cc1Nc1nc(Nc2cccc(F)c2C(N)=O)c2cc[nH]c2n1
GI50 [1]: 0.263 µM | TGI [1]: 1.21 µM

COc1cc(N2CCC(N3CCN(C)CC3)CC2)ccc1Nc1ncc(Cl)c(Nc2ccccc2S(=O)(=O)C(C)C)n1
GI50 [1]: 0.483 µM | TGI [1]: 1.78 µM

O=[N+]([O-])c1cc2c(c([N+](=O)[O-])c1)Nc1ccccc1O2
GI50 [1]: 2.14 µM | TGI [1]: 9.84 µM

CCN(CC)CC[n+]1cc2cc(OC)c(OC)cc2c2ccc3cc4c(cc3c21)OCO4
GI50 [1]: 0.241 µM | TGI [1]: 1.09 µM

CCOCCOC[C@H]1CCCN(c2ccnc3sc(C(N)=O)c(N)c23)C1
GI50 [1]: 3.44 µM | TGI [1]: > 100 µM

O=C(NCCCCCCNC(=O)OCc1ccc2c(Cl)cc(Cl)c(O)c2n1)OCc1ccc2c(Cl)cc(Cl)c(O)c2n1
GI50 [1]: 0.59 µM | TGI [1]: 2.14 µM

Oc1ccc(-c2nnc(SCc3ccc(O)c4ncccc34)n2-c2ccccc2)cc1
GI50 [1]: 0.421 µM | TGI [1]: 2.83 µM

O=c1cc(-c2cccc(OCc3ccccc3)c2)[nH]c2cc3c(cc12)OCO3
GI50 [1]: 9.59 µM | TGI [1]: > 100 µM

Nc1c2ccccc2nc2ccccc12 (tested in a mixture with another compound)
GI50 [1]: 1.07 µM | TGI [1]: 3.21 µM

CNC(=O)CN1CCC(Oc2cc3c(Nc4cccc(Cl)c4F)ncnc3cc2OC)CC1
GI50 [1]: < 0.01 µM and 0.00403 µM

COc1cnc2c(c1)C(=O)c1c-2n(CCCNC(C)C)c(=O)c2cc([N+](=O)[O-])ccc12
GI50 [1]: 0.0206 µM | TGI [1]: 0.0603 µM

O=C(O)c1ccccc1Nc1ccc2nnc(-c3ccncc3)n2n1
GI50 [1]: 1.96 µM | TGI [1]: 4.59 µM

CCN(CC)c1ccnc(CNCCSC(c2ccccc2)(c2ccccc2)c2ccc(OC)cc2)c1
GI50 [2]: 1.85 µM | TGI [2]: 4.86 µM | GI50 [3]: 4.2 µM | TGI [3]: 15 µM | GI50 [4]: 3.18 µM | TGI [4]: 11 µM | GI50 [5]: 3.13 µM | TGI [5]: 10.8 µM | GI50 [6]: 3.86 µM | TGI [6]: 17 µM | GI50 [7]: 13.9 µM | TGI [7]: 29.7 µM | GI50 [8]: 3.61 µM | TGI [8]: 14.9 µM | GI50 [9]: 1.44 µM | TGI [9]: 5.12 µM | GI50 [10]: 3.22 µM | TGI [10]: 13.2 µM | GI50 [11]: 1.3 µM | TGI [11]: 5.96 µM | GI50 [12]: 2.62 µM | TGI [12]: 6.87 µM | GI50 [13]: 3.19 µM | TGI [13]: 13.3 µM | GI50 [14]: 2.32 µM | TGI [14]: 5.78 µM | GI50 [15]: 3.09 µM | TGI [15]: 12.3 µM | GI50 [16]: 2.15 µM | TGI [16]: 4.27 µM | GI50 [17]: 2.71 µM | TGI [17]: 11.2 µM | GI50 [18]: 3.78 µM | TGI [18]: 13.6 µM | GI50 [19]: 1.79 µM | TGI [19]: 3.41 µM | GI50 [20]: 2.92 µM | TGI [20]: 10.7 µM | GI50 [21]: 1.75 µM | TGI [21]: 4.15 µM | GI50 [1]: 1.66 µM | TGI [1]: 4.49 µM | GI50 [22]: 2.19 µM | TGI [22]: 7.13 µM | GI50 [23]: 4.3 µM | TGI [23]: 15.6 µM | GI50 [24]: 1.9 µM | TGI [24]: 3.86 µM | GI50 [25]: 2.3 µM | TGI [25]: 6.43 µM | GI50 [26]: 3.82 µM | TGI [26]: 15.7 µM | GI50 [27]: 3.43 µM | TGI [27]: 13.6 µM | GI50 [28]: 2.11 µM | TGI [28]: 12.4 µM | GI50 [29]: 4.35 µM | TGI [29]: 19 µM | GI50 [30]: 2.36 µM | TGI [30]: 9.84 µM | GI50 [31]: 1.98 µM | TGI [31]: 4.45 µM | GI50 [32]: 3.63 µM | TGI [32]: 16 µM | GI50 [33]: 1.72 µM | TGI [33]: 3.52 µM | GI50 [34]: 5.9 µM | TGI [34]: 19.2 µM | GI50 [35]: 3.12 µM | TGI [35]: 10.3 µM | GI50 [36]: 3.41 µM | TGI [36]: 12.4 µM | GI50 [37]: 3.1 µM | TGI [37]: 13.6 µM | GI50 [38]: 3.74 µM | TGI [38]: 17.1 µM | GI50 [39]: 2.26 µM | TGI [39]: 6.8 µM | GI50 [40]: 2.4 µM | TGI [40]: 7.2 µM | GI50 [41]: 1.65 µM | TGI [41]: 4.24 µM | GI50 [42]: 4.32 µM | TGI [42]: 20.6 µM | GI50 [43]: 4.52 µM | TGI [43]: 17.2 µM | GI50 [44]: 2.68 µM | TGI [44]: 8.97 µM | GI50 [45]: 1.68 µM | TGI [45]: 3.06 µM | GI50 [46]: 2 µM | TGI [46]: 8.32 µM | GI50 [47]: 2.93 µM | TGI [47]: 10.6 µM | GI50 [48]: 1.65 µM | TGI [48]: 9.09 µM | GI50 [49]: 3.14 µM | TGI [49]: 13.2 µM | GI50 [50]: 2.2 µM | TGI [50]: 5.86 µM | GI50 [51]: 2.87 µM | TGI [51]: 10.8 µM | GI50 [52]: 4.04 µM | TGI [52]: 15.9 µM | GI50 [53]: 2.94 µM | TGI [53]: 12 µM | GI50 [54]: 2.82 µM | TGI [54]: 9.49 µM | GI50 [55]: 4.43 µM | TGI [55]: 17 µM | GI50 [56]: 3.04 µM | TGI [56]: 10.2 µM | GI50 [57]: 2.44 µM | TGI [57]: 7.29 µM
